Tested on: HT-1080
Test: Modulatory profiling: Alamar Blue viability, lethal compound cotreated with death modulator (EC50, AUC)
Type: cell-based
Parameters: AUC, modulator HT.3MA / AUC, modulator HT.ALLN / AUC HT.ATA / AUC HT.ActD / AUC HT.BHA / AUC HT.BHT / AUC HT.BocD / AUC HT.CHX / AUC HT.Co2+ / AUC HT.DPQ / AUC HT.EGTA / AUC HT.Lmim / AUC HT.NAD+ / AUC HT.Nec-1 / AUC HT.SP600125 / AUC HT.TLCK / AUC HT.U0126: unit not given beside the values
Details: for AUC HT.ATA: HT-1080, modulator ATA; for AUC HT.ActD: HT-1080, modulator ActD; for AUC HT.BHA: HT-1080, modulator BHA; for AUC HT.BHT: HT-1080, modulator BHT; for AUC HT.BocD: HT-1080, modulator BocD; for AUC HT.CHX: HT-1080, modulator CHX; for AUC HT.Co2+: HT-1080, modulator Co2+; for AUC HT.CspA: HT-1080, modulator CspA; for AUC HT.DPQ: HT-1080, modulator DPQ; for AUC HT.EGTA: HT-1080, modulator EGTA; for AUC HT.Gd3+: HT-1080, modulator Gd3+; for AUC HT.LNAME: HT-1080, modulator LNAME; for AUC HT.Lmim: HT-1080, modulator Lmim; for AUC HT.NAD+: HT-1080, modulator NAD+; for AUC HT.NMMA: HT-1080, modulator NMMA; for AUC HT.Nec-1: HT-1080, modulator Nec-1; for AUC HT.Pepstatin: HT-1080, modulator Pepstatin; for AUC HT.SP600125: HT-1080, modulator SP600125; for AUC HT.TLCK: HT-1080, modulator TLCK; for AUC HT.U0126: HT-1080, modulator U0126; for HT.atoc (AUC) / HT.bCarotene (AUC) / HT.deferox (AUC) / HT.digoxin (AUC) / HT.trolox (AUC) / HT.zVAD (AUC): HT-1080; for HT.atoc (AUC): modulator atoc; for HT.bCarotene (AUC): modulator bCarotene; for HT.deferox (AUC): modulator deferox; for HT.digoxin (AUC): modulator digoxin; for HT.trolox (AUC): modulator trolox; for HT.zVAD (AUC): modulator zVAD; for AUC, modulator HT.3MA / AUC, modulator HT.ALLN: HT-1080 cells, modulatory profile value (AUC); for AUC, modulator HT.3MA: lethal compound cotreated with modulator 3MA; for AUC, modulator HT.ALLN: lethal compound cotreated with modulator ALLN

SMILES | AUC HT.ATA | AUC HT.ActD | AUC HT.BHA | AUC HT.BHT | AUC HT.BocD | AUC HT.CHX | AUC HT.Co2+ | AUC HT.CspA | AUC HT.DPQ | AUC HT.EGTA | AUC HT.Gd3+ | AUC HT.LNAME | AUC HT.Lmim | AUC HT.NAD+ | AUC HT.NMMA | HT.atoc (AUC) | HT.bCarotene (AUC) | HT.deferox (AUC) | HT.digoxin (AUC) | HT.trolox (AUC) | other results
COc1cc2c(c(OC)c1OC)-c1ccc(OC)c(=O)cc1[C@@H](NC(C)=O)CC2 [Colchicine] | 0.1325 | 0.01343 | 0.01506 | −0.006747 | 0.1264 | 0.04333 | 0.1098 | −0.1209 | 0.01511 | −0.000119 | 0.01351 | 0.008236 | 0.1199 | 0.1471 | 0.008585 | −0.0173 | 0.01723 | 0.2984 | 0.1359 | 0.01591 | AUC HT.Nec-1: 0.01661; AUC HT.Pepstatin: 0.004413; AUC HT.SP600125: −0.02858; AUC HT.TLCK: 0.0306; AUC HT.U0126: 0.2237; HT.zVAD (AUC): 0.134; AUC, modulator HT.3MA: 0.01861; AUC, modulator HT.ALLN: 0.1932
O=C1C(Cl)=C(N2CCOCC2)C(=O)C(Cl)=C1N1CCOCC1 [CIL11] | 0.0148 | −0.0343 | −0.01902 | −0.09641 | 0.07911 | 0.007052 | 0.05358 | −0.005498 | 0.003904 | 0.004002 | −0.0298 | 0.02954 | −0.034 | 0.02582 | −0.02554 | 0.07926 | −0.01827 | 0.0278 | −0.01376 | −0.02115 | AUC HT.Nec-1: 0.01983; AUC HT.Pepstatin: −0.003096; AUC HT.SP600125: −0.02876; AUC HT.TLCK: 0.01902; AUC HT.U0126: 0.06089; HT.zVAD (AUC): −0.002495; AUC, modulator HT.3MA: 0.0001144; AUC, modulator HT.ALLN: 0.01794
CC1=CC(C)(C)Nc2ccc(OC(=O)c3ccco3)cc21 [CIL2] | 0.03084 | −0.005228 | −0.03767 | −0.1327 | 0.1395 | 0.1414 | −0.132 | 0.01224 | −0.003125 | −0.005627 | −0.02304 | 0.02625 | −0.03013 | 0.04925 | −0.03029 | 0.04757 | −0.02687 | 0.02963 | −0.01222 | −0.03094 | AUC HT.Nec-1: −0.01273; AUC HT.Pepstatin: 0.008816; AUC HT.SP600125: −0.003684; AUC HT.TLCK: 0.02037; AUC HT.U0126: 0.02089; HT.zVAD (AUC): −0.02828; AUC, modulator HT.3MA: 0.07178; AUC, modulator HT.ALLN: 0.05292
C[S+]([O-])c1nc(-c2ccc(Br)cc2)cc(-c2ccccc2)c1C#N (stereo not drawn) [CIL17] | −0.0157 | −0.03982 | −0.02052 | −0.138 | 0.0313 | 0.06579 | −0.008436 | −0.03354 | −0.02303 | 0.001857 | −0.04318 | 0.02242 | −0.0132 | 0.04423 | −0.02639 | 0.145 | −0.005211 | 0.02894 | −0.003189 | 0.004595 | HT.zVAD (AUC): 0.008536; AUC, modulator HT.3MA: 0.01558; AUC, modulator HT.ALLN: 0.03631
CC(C)(C)C1CCc2c(sc(NC(=O)CN3CCNCC3)c2C(N)=O)C1 (stereo not drawn) [CIL10] | 0.01743 | −0.01865 | −0.02863 | −0.08663 | 0.1385 | 0.05132 | 0.1226 | 0.004872 | 0.004305 | −0.007776 | −0.02788 | 0.02616 | −0.02065 | 0.04087 | −0.009286 | 0.1034 | −0.01201 | −0.004319 | 0.01443 | −0.006674 | AUC HT.Nec-1: 0.03698; AUC HT.Pepstatin: −0.01087; AUC HT.SP600125: −0.009227; AUC HT.TLCK: −0.001631; AUC HT.U0126: 0.01126; HT.zVAD (AUC): −0.01286; AUC, modulator HT.3MA: −0.01982; AUC, modulator HT.ALLN: 0.1067
C[C@@H]1C[C@@H]([C@H](O)CC2CC(=O)NC(=O)C2)C(=O)[C@@H](C)C1 [cycloheximide, Cycloheximide, reference compound] | −0.01057 | 0.06057 | 0.06705 | −0.03297 | 0.0413 | 0.1462 | 0.09948 | 0.04639 | 0.01425 | 0.01386 | 0.002991 | 0.02188 | 0.1089 | 0.07007 | 0.01986 | 0.01667 | 0.008758 | 0.2041 | 0.0457 | 0.02127 | AUC HT.Nec-1: 0.03736; AUC HT.Pepstatin: 0.006163; AUC HT.SP600125: −0.003327; AUC HT.TLCK: 0.01836; AUC HT.U0126: 0.03848; HT.zVAD (AUC): 0.0358; AUC, modulator HT.3MA: 0.005512; AUC, modulator HT.ALLN: 0.3818
O=c1c(N2CCCC2)c(Cl)cnn1-c1ccccc1 [CIL20] | −0.001276 | −0.006608 | 0.0001715 | −0.08075 | 0.01009 | 0.1212 | 0.1205 | −0.05648 | −0.03779 | −0.01805 | −0.02607 | 0.01703 | 0.002914 | 0.05985 | −0.0209 | 0.0292 | 0.008618 | 0.03912 | 0.01851 | 0.03002 | HT.zVAD (AUC): −0.02079; AUC, modulator HT.3MA: 0.004881; AUC, modulator HT.ALLN: 0.09673
CN(C)CCCOS(=O)(=O)c1ccc(N2CCC(c3ccc(Cl)cc3)=N2)cc1 [CIL40] | 0.06692 | −0.06544 | −0.09372 | −0.1505 | 0.01176 | −0.02863 | 0.04911 | −0.04697 | 0.04908 | −0.02642 | −0.0186 | −0.01999 | 0.0004825 | −0.04749 | −0.006901 | 0.1232 | −0.01785 | −0.08111 | −0.03539 | −0.02768 | HT.zVAD (AUC): 0.01717; AUC, modulator HT.3MA: 0.0807; AUC, modulator HT.ALLN: 0.1761
COc1ccccc1/C=C/C1(C(=O)NC2CCCC2)CC(=O)N1c1ccc(F)cc1 (stereo not drawn) [CIL1] | −0.0478 | −0.04057 | 0.02691 | −0.0849 | −0.01644 | 0.09163 | 0.2048 | −0.04542 | 0.04203 | −0.006602 | −0.03215 | 0.03977 | 0.08631 | 0.07889 | −0.0482 | 0.216 | −0.02846 | 0.08359 | −0.003809 | 0.02477 | AUC HT.Nec-1: 0.02294; AUC HT.Pepstatin: 0.001474; AUC HT.SP600125: −0.04919; AUC HT.TLCK: 0.04647; AUC HT.U0126: 0.1491; HT.zVAD (AUC): −0.0551; AUC, modulator HT.3MA: −0.001968; AUC, modulator HT.ALLN: 0.1053

Reference: patent publication US10947188B2, “Small molecule ferroptosis inducers” (THE TRUSTEES OF COLUMBIA UNIVERSITY IN THE CITY OF NEW YORK, priority 2016, dated 2021)
